Results taken from the supplement of paper PMC10307832.

Key:
Assay in all cases: relative viability (nuclei count vs DMSO), 5 days (fraction); higher = more cells survive
XMD14-99 = compound: CN1CCN(CC1)C2=CC(=C(C=C2)NC3=NC(=C(S3)C(=O)C4=C(C=CC=C4Cl)Cl)N)OC [XMD14-99]
Method in brief: (§1)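 A plate was accepted only when its control CV was below 25% and the cells had doubled at least once. Viability is defined from nuclear counts as treated wells divided by vehicle wells, with the median taken across plates. That median covers lung cancer cell lines grown in 1536-well plates, dosed by pinning at five √10-spaced library-drug concentrations, and counted in MetaXpress from 4× Hoechst images after 5 days.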

AZD1208 = compound: N[C@@H]1CCCN(c2c(/C=C3\SC(=O)NC3=O)cccc2-c2ccccc2)C1 [AZD1208]
Method in brief: as §1

XMD14-99 + Alpelisib = compound: CN1CCN(CC1)C2=CC(=C(C=C2)NC3=NC(=C(S3)C(=O)C4=C(C=CC=C4Cl)Cl)N)OC [XMD14-99] + Cc1nc(NC(=O)N2CCC[C@H]2C(N)=O)sc1-c1ccnc(C(C)(C)C(F)(F)F)c1 [Alpelisib] (partner 2 µM)
Method in brief: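 Values are medians from duplicate plates. Each reflects relative viability, defined as the nuclei count of treated wells over that of vehicle wells. Lung cancer cell lines in 1536-well plates were pin-tool dosed one day after seeding with one drug alone or with a fixed anchor-drug dose plus five library-drug doses (not always all listed) in √10 steps, then fixed, stained and imaged at 4× after 5 days.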

For UMC-11, the relative viability (XMD14-99; 0.08 µM) was 0.968, the relative viability (XMD14-99; 0.8 µM) was 1.02 and the relative viability (XMD14-99; 2.53 µM) was 1. The relative viability (XMD14-99; 8 µM) was 0.83, the relative viability (AZD1208; 0.08 µM) was 0.85 and the relative viability (AZD1208; 0.253 µM) was 0.851. For the same cell line, the relative viability (AZD1208; 0.8 µM) was 0.713, the relative viability (AZD1208; 2.53 µM) was 0.67 and the relative viability (AZD1208; 8 µM) was 0.511. For the same cell line, the relative viability (XMD14-99 + Alpelisib; first compound 0.08 µM) was 0.939, the relative viability (XMD14-99 + Alpelisib; first compound 0.8 µM) was 1.02 and the relative viability (XMD14-99 + Alpelisib; first compound 2.53 µM) was 1.01. The relative viability (XMD14-99 + Alpelisib; first compound 8 µM) was 0.735.
